Test results from patent US7326721B2 (Hypnion, Inc., priority 2003, dated 2008).
Values joined by “and” are separate entries in the source; they are usually repeats but may differ in a detail not shown here. Equal values may be shown once. Read-outs that look alike come from different tables or passages of the source.

What was measured:
M1 muscarinic receptor [1] = biological target: T1, M1 muscarinic receptor (Homo sapiens, UniProt P11229); set-up: purchased PerkinElmer, Inc., Wellesley, Mass; host or cells: CHO cells; details: reference compounds; read-out: Ki of reference compounds, M1 binding assay; cited from earlier work
T1 sequence (P11229 1-460): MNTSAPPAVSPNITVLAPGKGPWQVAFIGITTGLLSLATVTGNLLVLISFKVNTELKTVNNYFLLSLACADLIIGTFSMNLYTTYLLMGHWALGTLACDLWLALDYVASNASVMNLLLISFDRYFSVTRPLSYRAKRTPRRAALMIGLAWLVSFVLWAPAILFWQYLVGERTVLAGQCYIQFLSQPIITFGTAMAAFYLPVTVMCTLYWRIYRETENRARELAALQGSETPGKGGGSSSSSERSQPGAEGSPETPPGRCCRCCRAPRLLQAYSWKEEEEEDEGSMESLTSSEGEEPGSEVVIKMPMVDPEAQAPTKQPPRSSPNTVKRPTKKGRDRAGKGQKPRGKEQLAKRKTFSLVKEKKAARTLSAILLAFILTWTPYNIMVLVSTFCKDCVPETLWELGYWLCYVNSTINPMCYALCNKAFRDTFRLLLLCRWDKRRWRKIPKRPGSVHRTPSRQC

Wistar rats = experiment: Acetic acid-induced abdominal spasm test in the rat; type: in vivo; details: oral 100 mg/kg
Protocol: (§1) The objective of this example was to determine the analgesic activity of HY-2901 (Also referred to herein as Compound 49a) following oral administration. Analgesic activity was assessed abdominal spasm test in the rat and mouse. Analgesic activity is also assessed using the tail clip test in the mouse, tail flick test in the rat, Randall-Selitto test in the rat and comparisons are made with a vehicle control group. Reference compounds ASA (acetylsalicylic acid) and morphine are also included for comparison.
(§2) The tail clip and tail flick test provide useful information about the central analgesic activity of the test article. The Randall-Selitto test provides information on the compound's ability to modify a hyperalgesic state and the abdominal spasm test provides information on the peripheral analgesic activity of the test article. The test article is administered by oral gavage, this being the intended clinical route of administration. The dose levels employed are expected to encompass the efficacy dose and provide an adequate safety margin.
(§3) All formulations were prepared on each day of dosing. The test article (HY-2901) was formulated in 0.25% (w/v) MC at the highest concentration required. Lower doses were obtained by serial dilution of the highest concentration using 0.25% (w/v) MC. The reference compound, acetylsalicylic acid, was formulated in 0.25% (w/v) MC at the required concentrations. Brewer's yeast was formulated in water for injection at the required concentration. Acetic acid was diluted with water for injection to provide the required concentration for administration.
(§4) An adequate number of male Crl:CD-I(ICR)BR mice and Wistar rats were obtained from Charles River (UK) Ltd., Margate, Kent. The mice were approximately 4 weeks of age and weigh between 18 and 22 g on arrival. The rats were approximately 5 weeks of age and weigh between 150 and 170 g on arrival. The age and weight of the animals at the start of the study was documented in the raw data and final report,
Each animal received a single administration of vehicle, test article or reference compound by oral gavage, using a constant dose volume […]. Individual dose volumes were based on individual body weights obtained on the day of dosing.
Forty-five minutes following oral administration each animal received a 1 mL intraperitoneal injection of 1% acetic acid. Animals were immediately placed into individual observation chambers and the number of abdominal spasms elicited over the subsequent 25-minute period was recorded.

Crl:CD-I(ICR)BR mice = experiment: Acetic acid-induced abdominal spasm test in the mouse; type: in vivo
Protocol: as §1, §2, §3, §4
Each animal received a single administration of vehicle, test article or reference compound by oral gavage, using a constant dose volume 10 mL/kg. Individual dose volumes were based on individual body weights obtained on the day of dosing.
Forty-five minutes following oral administration each animal received a 0.25 mL intraperitoneal injection of 0.5% acetic acid. Animals were immediately placed into individual observation chambers and the number of abdominal spasms elicited over the subsequent 25-minute period was recorded.

M1 muscarinic receptor [2] = biological target: T1, M1 muscarinic receptor; experiment: Muscarinic M1 binding assay ([3H]-scopolamine, N-methyl chloride)
M2 muscarinic receptor = biological target: T2, M2 muscarinic receptor (Homo sapiens, UniProt P08172); experiment: Muscarinic M2 binding assay
T2 sequence (P08172 1-466): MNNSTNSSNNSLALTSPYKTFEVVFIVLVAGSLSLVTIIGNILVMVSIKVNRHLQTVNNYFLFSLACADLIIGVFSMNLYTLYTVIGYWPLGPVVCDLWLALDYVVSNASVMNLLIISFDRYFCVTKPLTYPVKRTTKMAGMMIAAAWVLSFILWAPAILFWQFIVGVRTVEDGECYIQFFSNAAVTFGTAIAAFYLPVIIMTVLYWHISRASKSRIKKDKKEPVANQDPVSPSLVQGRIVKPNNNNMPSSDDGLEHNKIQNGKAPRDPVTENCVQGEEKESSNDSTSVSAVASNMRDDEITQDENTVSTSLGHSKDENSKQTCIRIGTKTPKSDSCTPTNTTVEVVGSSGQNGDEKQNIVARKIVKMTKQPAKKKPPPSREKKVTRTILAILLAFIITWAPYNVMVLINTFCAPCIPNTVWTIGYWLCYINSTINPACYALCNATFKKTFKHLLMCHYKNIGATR

5HT2a (rat) = 5HT2a (rat) (Rattus norvegicus, UniProt P14842); experiment: 5HT2a (rat) binding (Table 28)
Protocol: (§5) The comparative data is shown in Table 28, unless otherwise noted, binding was measured with the bovine receptors, H1(hR) is the human H1 receptor, 5HT2a (h) is the human 5HT2a receptor. Binding numbers are presented in nM values.

H1 histamine receptor = biological target: T3, H1 histamine receptor (Bos taurus, UniProt P30546); experiment: Histamine H1 competitive binding assay ([3H]pyrilamine); set-up: species or system bovine; details: bovine receptor; read-out: H1 binding
T3 construct: the receptors were obtained from bovine cerebellar membrane tissue; from tissue; host or cells: bovine cerebellar membranes

[3] = biological target: Adrenergic, Alpha 1, Non-selective; experiment: Table 12 panel: Adrenergic, Alpha 1; type: binding; details: read-out: α1 binding
[4] = biological target: Adrenergic, Alpha 2, Non-selective; experiment: Table 12 panel: Adrenergic, Alpha 2; type: binding; details: read-out: α2 binding
human H1 receptor = human H1 receptor (Homo sapiens, UniProt P35367); experiment: H1(hR) binding (Table 28)
Protocol: as §5

adult male Wistar rats = experiment: SCORE-2000 sleep-wakefulness, locomotor activity and body temperature monitoring; type: in vivo, rat
[5] = biological target: Dopamine, D1 (human recombinant) (UniProt P14416); experiment: Dopamine D2 binding assay (printed as D1 in b555)
Protocol: In vitro binding assays are used to determine H1 binding (i.e., primary target binding) and M1, M2 and M3 binding (i.e., off target binding). […] Similar assays are performed with H1 and dopamine receptors (D1 and D2), and with H1 and adrenergic receptors (α1 and α2).
Dopamine, D1 (human recombinant) binding assay was performed according to published procedures. See, e.g., Jarvie, et al. J. Recept Res., 13(1–4): 573–90 (1993); and Gundlach, et al. Life Sciences, 35(19): 1981–8 (1984) with modifications

Dopamine, D1 = Dopamine, D1 (UniProt P21728); experiment: Dopamine, D1 (human recombinant) binding assay
hERG = hERG (Homo sapiens, UniProt Q12809)
human 5HT2a receptor = human 5HT2a receptor (Homo sapiens, UniProt P28223); experiment: 5HT2a (h) binding (Table 28)
M3 muscarinic receptor = M3 muscarinic receptor (Homo sapiens, UniProt P20309); experiment: Muscarinic M3 binding assay
M3 muscarinic receptor, sequence (P20309 whole entry): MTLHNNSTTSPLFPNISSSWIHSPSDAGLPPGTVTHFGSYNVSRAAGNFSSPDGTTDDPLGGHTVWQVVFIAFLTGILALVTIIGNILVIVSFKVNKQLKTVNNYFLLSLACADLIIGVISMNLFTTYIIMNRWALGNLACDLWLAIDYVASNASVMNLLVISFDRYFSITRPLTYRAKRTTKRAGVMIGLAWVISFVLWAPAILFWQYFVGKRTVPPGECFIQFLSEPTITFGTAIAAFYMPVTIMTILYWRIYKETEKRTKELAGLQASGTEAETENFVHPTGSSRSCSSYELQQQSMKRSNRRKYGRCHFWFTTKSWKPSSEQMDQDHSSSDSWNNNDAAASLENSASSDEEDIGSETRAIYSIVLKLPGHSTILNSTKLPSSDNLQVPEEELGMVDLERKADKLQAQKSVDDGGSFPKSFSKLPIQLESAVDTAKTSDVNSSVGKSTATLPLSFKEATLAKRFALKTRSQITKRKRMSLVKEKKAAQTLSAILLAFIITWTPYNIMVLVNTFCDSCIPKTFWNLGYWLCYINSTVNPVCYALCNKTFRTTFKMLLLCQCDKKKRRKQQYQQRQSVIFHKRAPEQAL

human 5HT2a receptor, sequence (P28223 whole entry): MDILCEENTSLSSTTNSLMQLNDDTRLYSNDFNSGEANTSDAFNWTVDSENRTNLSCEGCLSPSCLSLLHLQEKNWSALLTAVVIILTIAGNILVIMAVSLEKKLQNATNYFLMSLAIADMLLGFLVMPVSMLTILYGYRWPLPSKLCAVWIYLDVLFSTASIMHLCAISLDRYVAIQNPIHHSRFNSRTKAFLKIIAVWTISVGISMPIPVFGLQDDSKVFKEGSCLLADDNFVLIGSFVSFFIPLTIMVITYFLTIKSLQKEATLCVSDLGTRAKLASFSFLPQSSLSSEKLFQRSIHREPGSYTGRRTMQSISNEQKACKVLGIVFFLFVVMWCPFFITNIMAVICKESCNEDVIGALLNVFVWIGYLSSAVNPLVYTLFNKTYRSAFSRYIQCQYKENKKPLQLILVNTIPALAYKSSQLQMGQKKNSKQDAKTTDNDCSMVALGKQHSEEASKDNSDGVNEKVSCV
hERG, sequence (Q12809 whole entry): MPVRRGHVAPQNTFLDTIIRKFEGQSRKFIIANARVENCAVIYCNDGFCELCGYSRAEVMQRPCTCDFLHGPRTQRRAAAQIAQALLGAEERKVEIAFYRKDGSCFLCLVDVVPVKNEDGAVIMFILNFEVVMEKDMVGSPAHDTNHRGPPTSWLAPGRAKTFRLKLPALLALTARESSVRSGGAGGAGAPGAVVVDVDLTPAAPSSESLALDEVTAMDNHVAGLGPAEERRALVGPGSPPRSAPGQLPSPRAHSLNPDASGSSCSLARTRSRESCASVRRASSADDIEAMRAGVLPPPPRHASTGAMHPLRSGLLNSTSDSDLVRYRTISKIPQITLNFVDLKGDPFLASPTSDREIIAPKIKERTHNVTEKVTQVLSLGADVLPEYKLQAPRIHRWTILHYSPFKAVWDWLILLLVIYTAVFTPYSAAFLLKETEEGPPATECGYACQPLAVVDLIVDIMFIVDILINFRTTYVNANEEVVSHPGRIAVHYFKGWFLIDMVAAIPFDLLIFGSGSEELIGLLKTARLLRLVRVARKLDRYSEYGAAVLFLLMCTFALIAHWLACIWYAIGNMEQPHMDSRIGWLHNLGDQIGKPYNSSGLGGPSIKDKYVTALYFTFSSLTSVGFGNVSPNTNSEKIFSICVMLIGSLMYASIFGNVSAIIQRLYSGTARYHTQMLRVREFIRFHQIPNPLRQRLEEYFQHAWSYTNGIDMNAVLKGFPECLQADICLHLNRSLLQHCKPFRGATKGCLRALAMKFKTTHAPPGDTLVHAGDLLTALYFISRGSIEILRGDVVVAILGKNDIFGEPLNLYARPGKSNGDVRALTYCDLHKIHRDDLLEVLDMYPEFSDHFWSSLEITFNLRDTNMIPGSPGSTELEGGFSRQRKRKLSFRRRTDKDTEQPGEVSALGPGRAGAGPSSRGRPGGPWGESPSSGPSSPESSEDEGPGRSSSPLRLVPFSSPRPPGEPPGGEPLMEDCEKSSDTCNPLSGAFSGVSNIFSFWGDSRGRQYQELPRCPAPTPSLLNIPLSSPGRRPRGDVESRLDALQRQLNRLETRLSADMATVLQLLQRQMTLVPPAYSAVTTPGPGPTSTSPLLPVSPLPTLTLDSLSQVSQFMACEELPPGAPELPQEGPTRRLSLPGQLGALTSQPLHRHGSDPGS
5HT2a (rat), sequence (P14842 whole entry): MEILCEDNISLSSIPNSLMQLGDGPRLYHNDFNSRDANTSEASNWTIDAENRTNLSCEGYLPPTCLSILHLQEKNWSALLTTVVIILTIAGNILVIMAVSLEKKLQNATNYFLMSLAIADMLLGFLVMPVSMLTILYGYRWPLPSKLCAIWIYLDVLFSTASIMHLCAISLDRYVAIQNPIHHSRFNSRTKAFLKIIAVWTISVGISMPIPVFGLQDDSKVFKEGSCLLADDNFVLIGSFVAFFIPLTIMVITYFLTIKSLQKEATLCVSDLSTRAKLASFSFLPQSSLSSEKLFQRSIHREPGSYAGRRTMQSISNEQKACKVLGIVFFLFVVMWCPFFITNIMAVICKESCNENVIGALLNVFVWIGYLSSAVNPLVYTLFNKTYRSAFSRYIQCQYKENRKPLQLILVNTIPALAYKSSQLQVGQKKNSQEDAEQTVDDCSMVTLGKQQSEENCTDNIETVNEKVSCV
T3 sequence (P30546 whole entry): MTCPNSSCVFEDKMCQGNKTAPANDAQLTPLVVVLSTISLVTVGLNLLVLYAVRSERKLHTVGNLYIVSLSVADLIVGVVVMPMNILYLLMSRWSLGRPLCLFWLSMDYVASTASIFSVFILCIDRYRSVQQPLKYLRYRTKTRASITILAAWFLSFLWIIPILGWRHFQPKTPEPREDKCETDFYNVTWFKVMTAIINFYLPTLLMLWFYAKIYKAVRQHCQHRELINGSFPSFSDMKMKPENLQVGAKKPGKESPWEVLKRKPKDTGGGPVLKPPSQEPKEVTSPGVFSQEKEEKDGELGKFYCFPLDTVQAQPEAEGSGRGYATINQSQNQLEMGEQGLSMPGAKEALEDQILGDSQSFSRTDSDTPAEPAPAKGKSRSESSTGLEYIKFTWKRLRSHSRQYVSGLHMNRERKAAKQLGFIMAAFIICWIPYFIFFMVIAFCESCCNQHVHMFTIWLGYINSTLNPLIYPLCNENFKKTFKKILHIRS
human H1 receptor, sequence (P35367 whole entry): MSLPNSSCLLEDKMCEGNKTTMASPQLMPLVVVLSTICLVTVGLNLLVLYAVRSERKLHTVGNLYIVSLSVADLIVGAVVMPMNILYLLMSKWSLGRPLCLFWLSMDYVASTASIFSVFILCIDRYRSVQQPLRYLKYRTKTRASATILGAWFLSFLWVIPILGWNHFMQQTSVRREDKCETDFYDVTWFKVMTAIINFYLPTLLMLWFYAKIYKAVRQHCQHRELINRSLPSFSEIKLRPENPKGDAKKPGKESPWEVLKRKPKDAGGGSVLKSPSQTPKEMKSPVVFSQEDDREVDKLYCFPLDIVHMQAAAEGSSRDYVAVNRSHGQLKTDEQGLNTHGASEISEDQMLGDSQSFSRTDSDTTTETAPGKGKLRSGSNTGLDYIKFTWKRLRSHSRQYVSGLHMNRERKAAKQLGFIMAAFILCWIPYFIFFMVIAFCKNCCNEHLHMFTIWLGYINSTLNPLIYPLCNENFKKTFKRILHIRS

C[N+]1(C)CCC(OC(=O)C(c2ccccc2)c2ccccc2)CC1 [4-DAMP methiodide]
Ki (M1 muscarinic receptor [1]): 0.27 nM

CC(=O)Oc1ccccc1C(=O)O [ASA, acetylsalicylic acid, reference compound]
Group mean (=sd) number pf abdominal spasms recorded in a 25-minute period (Wistar rats): 1 ± 2.3
Number of abdominal spasms recorded in a 25-minute period, individual animal data (Wistar rats; 100 mg/kg): 0 (3×) and 1 (2×) and 6
Group mean (±sd) number of abdominal spasms recorded in a 25 minute period (Crl:CD-I(ICR)BR mice; oral 100 mg/kg): 29 ± 29.9
Number of abdominal spasms recorded in a 25-minute period (Crl:CD-I(ICR)BR mice; oral, 100 mg/kg, individual animal data (animals 25-30)): 17 and 8 and 45 and 82 and 1 and 23

COc1ccc2c(c1)COc1ccc(F)cc1C2=C1CCN(CCC(=O)O)CC1 [Compound 10518]
Ki (M1 muscarinic receptor [2]): > 10000 nM
Ki (M2 muscarinic receptor): > 10000 nM
Ki (5HT2a (rat)): 197 nM
Ki (H1 histamine receptor): 52.3 nM
Ki [3]: 2850 nM
Ki [4]: > 10000 nM
Ki (human H1 receptor): 35 nM
LUSB 3 mg/kg (adult male Wistar rats): 6.7 ± 2.3
LUSB 10 mg/kg (adult male Wistar rats): 7.9 ± 1.7
NREM cumul. 10 mpk (adult male Wistar rats): 46 ± 7
Ki [5]: > 10000 nM
Ki (Dopamine, D1): > 10000 nM
HERG (hERG; human, 10 µM, pH 7.4): 3.90%
Ki (human 5HT2a receptor): 422 nM

COc1ccc2c(c1)COc1ccc(F)cc1C2=C1CCN(CC2(C(=O)O)CC2)CC1 [Compound 10519]
Ki (M1 muscarinic receptor [2]): > 10000 nM
Ki (M2 muscarinic receptor): > 10000 nM
Ki (5HT2a (rat)): 56 nM
Ki (H1 histamine receptor): 19.8 nM
Ki [3]: > 10000 nM
Ki [4]: > 10000 nM
Ki (human H1 receptor): 34 nM
Ki (M3 muscarinic receptor): > 10000 nM
Ki (Dopamine, D1): > 10000 nM
HERG (hERG): 6.10%
Ki (human 5HT2a receptor): 541 nM

COc1ccc2c(c1)COc1ccc(F)cc1C2=C1CCN(CCCC(=O)O)CC1 [Compound 10520]
Ki (M1 muscarinic receptor [2]): > 10000 nM
Ki (M2 muscarinic receptor): > 10000 nM
Ki (5HT2a (rat)): 55.8 nM
Ki (H1 histamine receptor): 22.5 nM
Ki [3]: 1090 nM
Ki [4]: > 10000 nM
Ki (human H1 receptor): 43 nM
LUSB 3 mg/kg (adult male Wistar rats): 4.9 ± 1.7
LUSB 10 mg/kg (adult male Wistar rats): 10.0 ± 2.2
NREM cumul. 10 mpk (adult male Wistar rats): 41 ± 8
Ki [5]: > 10000 nM
Ki (M3 muscarinic receptor): > 10000 nM
Ki (Dopamine, D1): > 10000 nM
HERG (hERG; human, 10 µM, pH 7.4): 56.00%
Ki (human 5HT2a receptor): 396 nM
